Results taken from ChEMBL document CHEMBL5233210, “Pyrazolone structural motif in medicinal chemistry: Retrospect and prospect” (Eur J Med Chem, 2020).
Values after ≈ are worked out from the molar mass of the structure shown.

Columns and labels:
[1] = biological target: T1, Prostaglandin G/H synthase 1 (Ovis aries, UniProt P05979); test: Inhibition of ovine COX-1
T1 sequence (P05979 whole entry): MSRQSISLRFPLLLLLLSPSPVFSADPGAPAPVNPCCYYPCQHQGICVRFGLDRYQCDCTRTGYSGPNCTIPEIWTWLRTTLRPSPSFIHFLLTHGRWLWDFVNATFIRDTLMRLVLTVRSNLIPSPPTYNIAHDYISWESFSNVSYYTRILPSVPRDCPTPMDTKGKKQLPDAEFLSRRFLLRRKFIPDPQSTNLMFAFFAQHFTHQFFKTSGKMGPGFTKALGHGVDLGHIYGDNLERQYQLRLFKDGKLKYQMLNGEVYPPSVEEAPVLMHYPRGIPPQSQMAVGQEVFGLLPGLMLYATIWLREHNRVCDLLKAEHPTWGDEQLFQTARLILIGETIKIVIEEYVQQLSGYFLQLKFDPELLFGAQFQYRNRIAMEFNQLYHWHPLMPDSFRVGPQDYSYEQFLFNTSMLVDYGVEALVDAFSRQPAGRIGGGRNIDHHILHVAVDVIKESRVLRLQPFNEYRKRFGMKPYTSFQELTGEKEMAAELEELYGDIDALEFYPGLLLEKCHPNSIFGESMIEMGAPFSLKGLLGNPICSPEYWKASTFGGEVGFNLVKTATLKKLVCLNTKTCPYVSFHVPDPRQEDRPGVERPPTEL

[2] = biological target: T2, Prostaglandin G/H synthase 2 (Ovis aries, UniProt P79208); test: Inhibition of ovine COX-2
T2 sequence (P79208 whole entry): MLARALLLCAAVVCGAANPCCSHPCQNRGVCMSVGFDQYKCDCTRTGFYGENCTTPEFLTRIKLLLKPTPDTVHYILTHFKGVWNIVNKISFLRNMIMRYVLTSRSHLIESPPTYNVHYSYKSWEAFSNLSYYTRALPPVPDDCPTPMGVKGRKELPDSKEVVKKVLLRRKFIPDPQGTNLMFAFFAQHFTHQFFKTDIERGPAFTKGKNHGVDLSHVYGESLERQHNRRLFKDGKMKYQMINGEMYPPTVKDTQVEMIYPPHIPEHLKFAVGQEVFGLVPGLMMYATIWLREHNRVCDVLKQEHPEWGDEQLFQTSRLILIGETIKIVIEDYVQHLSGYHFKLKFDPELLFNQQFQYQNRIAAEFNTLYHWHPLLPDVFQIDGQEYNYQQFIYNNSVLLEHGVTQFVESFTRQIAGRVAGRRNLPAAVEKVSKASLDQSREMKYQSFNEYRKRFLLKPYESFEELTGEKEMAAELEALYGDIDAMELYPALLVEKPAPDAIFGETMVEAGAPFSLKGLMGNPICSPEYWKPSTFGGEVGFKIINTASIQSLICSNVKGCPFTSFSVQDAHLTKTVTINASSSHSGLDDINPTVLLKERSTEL

Ovis aries = species: Ovis aries; test: Selectivity index, ratio of IC50 for ovine COX-1 to IC50 for ovine COX-2
Rattus norvegicus [3] = test: Antiinflammatory activity against rat assessed as inhibition of carrageenan-induced paw edema relative to control; assay type: functional; design: concentration or dose not given beside the values
Rattus norvegicus [4] = test: Antiinflammatory activity against rat assessed as inhibition of carrageenan-induced paw edema; assay type: functional
Ehrlich [5] = test: Cytotoxicity against mouse Ehrlich ascites cells assessed as dead cells at 500 ug/ml; assay type: functional; conditions: dose 500 µg/ml
Ehrlich [6] = test: Cytotoxicity against mouse Ehrlich ascites cells assessed as dead cells at 100 ug/ml; assay type: functional; conditions: dose 100 µg/ml
Ehrlich [7] = test: Cytotoxicity against mouse Ehrlich ascites cells assessed as dead cells at 25 ug/ml; assay type: functional; conditions: dose 25 µg/ml
MCF7 = test: Cytotoxicity against human MCF7 cells; assay type: functional, cell-based
PC-3 = test: Cytotoxicity against human PC-3 cells; assay type: functional, cell-based
HepG2 = test: Cytotoxicity against human HepG2 cells; assay type: functional, cell-based
Mus musculus [8] = species: Mus musculus; test: Antidepressant activity in Swiss albino mouse assessed as decrease in immobility time by forced swim test (reference value: 203.3 sec); assay type: functional
Mus musculus [9] = species: Mus musculus; test: Antidepressant activity in Swiss albino mouse assessed as change in immobility by forced swim test; assay type: functional
Mus musculus [10] = species: Mus musculus; test: Antidepressant activity in Swiss albino mouse assessed as change in immobility by tail suspension test; assay type: functional
Mus musculus [11] = species: Mus musculus; test: Antidepressant activity in Swiss albino mouse assessed as decrease in immobility time by tail suspension test (reference value: 185.8 sec); assay type: functional
Candida albicans = test: Antifungal activity against Candida albicans assessed as diameter of inhibition zone at 100 ppm; assay type: functional; conditions: read-out: DIZ
Micrococcus luteus = test: Antibacterial activity against Micrococcus luteus assessed as diameter of inhibition zone at 100 ppm; assay type: functional; conditions: read-out: DIZ
Salmonella paratyphi = test: Antibacterial activity against Salmonella paratyphi assessed as diameter of inhibition zone at 100 ppm; assay type: functional, Salmonella enterica subsp. enterica serovar Paratyphi A; conditions: Salmonella enterica, read-out: DIZ
Pseudomonas aeruginosa = test: Antibacterial activity against Pseudomonas aeruginosa assessed as diameter of inhibition zone at 100 ppm; assay type: functional; conditions: read-out: DIZ
Bacillus subtilis = test: Antibacterial activity against Bacillus subtilis assessed as diameter of inhibition zone at 100 ppm; assay type: functional; conditions: read-out: DIZ
Trichoderma viride = test: Antifungal activity against Trichoderma viride assessed as diameter of inhibition zone at 100 ppm; assay type: functional; conditions: read-out: DIZ
Streptococcus mutans = test: Antibacterial activity against Streptococcus mutans assessed as diameter of inhibition zone at 100 ppm; assay type: functional; conditions: read-out: DIZ
Salmonella typhi = test: Antibacterial activity against Salmonella typhi assessed as diameter of inhibition zone at 100 ppm; assay type: functional, Salmonella enterica subsp. enterica serovar Typhi; conditions: Salmonella enterica, read-out: DIZ
Aspergillus niger = test: Antifungal activity against Aspergillus niger assessed as diameter of inhibition zone at 100 ppm; assay type: functional; conditions: read-out: DIZ
Escherichia coli = test: Antibacterial activity against Escherichia coli assessed as diameter of inhibition zone at 100 ppm; assay type: functional; conditions: read-out: DIZ

NS(=O)(=O)c1ccc(N2N=C/C(=N/Nc3ccccc3C(=O)O)C2=O)cc1
IC50 [1]: 4.08 µM
IC50 [2]: 770 nM
Ratio IC50 (Ovis aries): 5.29

NS(=O)(=O)c1ccc(N/N=C2/C=NN(c3ccccc3C(=O)O)C2=O)cc1
IC50 [1]: 3.76 µM
IC50 [2]: 660 nM
Ratio IC50 (Ovis aries): 5.69

NS(=O)(=O)c1ccc(N2N=C/C(=N/Nc3ccc(C(=O)O)cc3)C2=O)cc1
Activity (Rattus norvegicus [3]): 72.72%
IC50 [1]: 3.81 µM
IC50 [2]: 720 nM
ED50 (Rattus norvegicus [4]): 44 µmol/kg
Ratio IC50 (Ovis aries): 5.29

O=c1[nH]cc(F)c(=O)[nH]1 [FLUOROURACIL]
Activity (Ehrlich [5]): 68%
Activity (Ehrlich [6]): 97.3%
Activity (Ehrlich [7]): 38.6%
IC50 (MCF7): 5.5 µg/mL (≈ 42.3 µM)
IC50 (PC-3): 8.3 µg/mL (≈ 63.8 µM)
IC50 (HepG2): 7.9 µg/mL (≈ 60.7 µM)

CC1=NN(C(=O)c2ccc3ccccc3c2)C(=O)C1/N=N/c1ccc(C)cc1C (stereo not given)
Time (Mus musculus [8]): 129.5 s
Activity (Mus musculus [9]): -36.3%
Activity (Mus musculus [10]): -40.2%
Time (Mus musculus [11]): 111 s

Cc1[nH]n(-c2ccccc2)c(=O)c1C(c1ccc(Br)cc1)c1c(O)ccc2ccccc12 (stereo not given)
zone of inhibition at 100 µg/mL (Candida albicans): 15.5 mm
zone of inhibition at 100 µg/mL (Micrococcus luteus): 18.5 mm
zone of inhibition at 100 µg/mL (Salmonella paratyphi): 19.5 mm
zone of inhibition at 100 µg/mL (Pseudomonas aeruginosa): 14.5 mm
zone of inhibition at 100 µg/mL (Bacillus subtilis): 18.5 mm
zone of inhibition at 100 µg/mL (Trichoderma viride): 13.5 mm
zone of inhibition at 100 µg/mL (Streptococcus mutans): 29.5 mm
zone of inhibition at 100 µg/mL (Salmonella typhi): 19.5 mm

CN(C)CCCN1c2ccccc2CCc2ccccc21 [IMIPRAMINE]
Time (Mus musculus [8]): 94 s
Activity (Mus musculus [9]): -53.8%
Activity (Mus musculus [10]): -41.3%
Time (Mus musculus [11]): 109 s

Cc1[nH]n(-c2ccccc2)c(=O)c1C(c1ccc(Br)c(F)c1)c1c(O)ccc2ccccc12 (stereo not given)
zone of inhibition at 100 µg/mL (Candida albicans): 18.5 mm
zone of inhibition at 100 µg/mL (Micrococcus luteus): 16.5 mm
zone of inhibition at 100 µg/mL (Salmonella paratyphi): 19.5 mm
zone of inhibition at 100 µg/mL (Pseudomonas aeruginosa): 14.5 mm
zone of inhibition at 100 µg/mL (Bacillus subtilis): 19.5 mm
zone of inhibition at 100 µg/mL (Trichoderma viride): 10.5 mm
zone of inhibition at 100 µg/mL (Streptococcus mutans): 18 mm
zone of inhibition at 100 µg/mL (Salmonella typhi): 20.5 mm

CC1=NN(C(=O)c2ccc3ccccc3c2)C(=O)C1/N=N/c1ccc(Cl)cc1Cl (stereo not given)
Time (Mus musculus [8]): 97.7 s
Activity (Mus musculus [9]): -51.9%
Activity (Mus musculus [10]): -38.4%
Time (Mus musculus [11]): 114.3 s

Cc1ccc(/N=N/c2c(N)n[nH]c2N)cc1
zone of inhibition at 100 µg/mL (Pseudomonas aeruginosa): 19.3 mm
zone of inhibition at 100 µg/mL (Bacillus subtilis): 25.3 mm
zone of inhibition at 100 µg/mL (Aspergillus niger): 25.5 mm
zone of inhibition at 100 µg/mL (Escherichia coli): 23.1 mm

Nc1cc(=O)n(-c2ccc([N+](=O)[O-])cc2[N+](=O)[O-])[nH]1
zone of inhibition at 100 µg/mL (Pseudomonas aeruginosa): 17.4 mm
zone of inhibition at 100 µg/mL (Bacillus subtilis): 18.1 mm
zone of inhibition at 100 µg/mL (Aspergillus niger): 15.2 mm
zone of inhibition at 100 µg/mL (Escherichia coli): 15.3 mm

CC/C(=N/NC(=O)c1ccco1)c1c(C)nn(-c2ccccc2)c1O
IC50 (PC-3): 6.8 µg/mL (≈ 20.1 µM)
IC50 (HepG2): 5.69 µg/mL (≈ 16.8 µM)
